Test results from patent US20220213092A1, “BICYCLIC PYRAZOLE BRUTON'S TYROSINE KINASE INHIBITORS” (AbbVie Inc., priority 2020, published 2022).

Molecular target: T1, BTK (Homo sapiens, UniProt Q06187)
T1 construct: purchased Nanosyn, Santa Clara, Calif; host or cells: 293HEK
Assay: BTK kinase electrophoretic mobility shift assay (MSA)
Format: biochemical
Settings: 50 μM ATP, 0.5 nM BTK enzyme (Nanosyn-293HEK, WT), 3 hours at 25° C.; all examples except 50, 51, 62 and 63; read-out: BTK IC50
Method: Kinase activity, unless otherwise indicated, was measured in vitro using an electrophoretic mobility shift assay (MSA). The phosphorylation of a peptide substrate by BTK and other kinases was measured. The kinase reactions were assembled in a total volume of 25 μL per well in 384 well plates. The following was added to each well: compound buffer (or control); enzyme buffer; and substrate buffer, as further described below.
The terminated reactions were analyzed using a 12 channel LABCHIP® 3000 microfluidic detection instrument (available from Caliper Life Sciences, Waltham, Mass.). […] Change in the relative fluorescence intensity of the substrate and product peaks was the parameter measured, reflecting enzyme activity. In the presence of an inhibitor, the ratio between product and substrate was altered. The signal of the product decreased, while the signal of the substrate increased. Capillary electrophoregrams (RDA acquisition files) were analyzed using HTS Well Analyzer software (available from Caliper Life Sciences, Waltham, Mass.).
Activity in each sample was determined as the product to sum ratio (PSR): P/(S+P), where P was the peak height of the product peptide and S was the peak height of the substrate peptide. For each compound, enzyme activity was measured at various concentrations (12 concentrations of compound spaced by 3× dilution intervals). Negative control samples (00 inhibition in the absence of inhibitor) and positive control samples (10000 inhibition, in the presence of 20 mM EDTA) were assembled in replicates of four and were used to calculate 00 inhibition values for each inhibitor at each concentration. Percent inhibition (Pinh) was determined using following equation: Pinh=(PSR0%−PSRinh)/(PSR0%−PSR100%)*100, where PSRinh was the product sum ratio in the presence of inhibitor, PSR0% was the average product sum ratio in the absence of inhibitor and PSR100% was the average product sum ratio in 100%−inhibition control samples.
The IC50 values of inhibitors were determined by 4 parameter sigmoidal dose response model fitting of the inhibition curves (Pinh versus inhibitor concentration) using XLfit® 4 software (available from IDBS, Boston, Mass.).

T1 sequence (Q06187 whole entry): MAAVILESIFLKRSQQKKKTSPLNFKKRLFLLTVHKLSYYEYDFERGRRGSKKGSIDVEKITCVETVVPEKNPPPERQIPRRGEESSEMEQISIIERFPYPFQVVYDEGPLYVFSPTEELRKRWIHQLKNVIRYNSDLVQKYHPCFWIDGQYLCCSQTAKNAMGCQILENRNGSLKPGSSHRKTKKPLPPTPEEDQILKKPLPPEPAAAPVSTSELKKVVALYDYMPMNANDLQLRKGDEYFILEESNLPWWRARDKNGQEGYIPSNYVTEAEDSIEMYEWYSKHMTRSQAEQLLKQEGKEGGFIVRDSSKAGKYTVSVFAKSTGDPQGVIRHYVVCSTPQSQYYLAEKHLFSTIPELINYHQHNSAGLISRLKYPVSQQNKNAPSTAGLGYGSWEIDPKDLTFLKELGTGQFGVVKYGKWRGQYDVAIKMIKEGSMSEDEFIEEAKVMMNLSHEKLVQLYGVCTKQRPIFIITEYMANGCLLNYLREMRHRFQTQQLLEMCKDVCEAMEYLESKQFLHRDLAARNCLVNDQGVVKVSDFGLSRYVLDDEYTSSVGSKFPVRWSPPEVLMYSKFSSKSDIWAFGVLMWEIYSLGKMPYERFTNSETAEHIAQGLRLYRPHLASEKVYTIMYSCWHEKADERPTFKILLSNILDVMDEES

Row | SMILES | IC50 [nM]
1 | C=CC(=O)N1CCC(C2CCNc3c2nn(-c2ccc(Oc4ccccc4)cc2)c3C(N)=O)C1 (mixture of isomers) [Example 10, 2-(4-phenoxyphenyl)-7-[1-(prop-2-enoyl)pyrrolidin-3-yl]-4,5,6,7-tetrahydro-2H-pyrazolo[4,3-b]pyridine-3-carboxamide] | 3.78
2 | C=CC(=O)N1CCC[C@H]([C@@H]2CCNc3c2nn(-c2ccc(Oc4ccccc4)cc2)c3C(N)=O)C1 (racemic) [Example 8, (7SR)-2-(4-phenoxyphenyl)-7-[(3RS)-1-(prop-2-enoyl)piperidin-3-yl]-4,5,6,7-tetrahydro-2H-pyrazolo[4,3-b]pyridine-3-carboxamide] | 4.7
3 | C=CC(=O)N1CCC[C@@H]([C@@H]2CCNc3c2nn(-c2ccc(Oc4ccccc4)cc2)c3C(N)=O)C1 (racemic) [Example 9, (7RS)-2-(4-phenoxyphenyl)-7-[(3RS)-1-(prop-2-enoyl)piperidin-3-yl]-4,5,6,7-tetrahydro-2H-pyrazolo[4,3-b]pyridine-3-carboxamide] | 13.8
4 | C=CC(=O)N1CCN([C@H]2CCNc3c2nn(-c2ccc(Oc4ccccc4)cc2)c3C(N)=O)[C@@H](C)C1 (single isomer, unassigned) [Example 31] | 88.3
5 | C=CC(=O)N1CCN([C@@H]2CCNc3c2nn(-c2ccc(Oc4ccccc4)cc2)c3C(N)=O)[C@@H](C)C1 (single isomer, unassigned) [Example 32] | 18.1
6 | CC#CC(=O)N1CCN([C@H]2CCNc3c2nn(-c2ccc(Oc4ccccc4)cc2)c3C(N)=O)CC1 (single isomer, unassigned) [Example 39] | 5.8
7 | CC#CC(=O)N1CCN([C@@H]2CCNc3c2nn(-c2ccc(Oc4ccccc4)cc2)c3C(N)=O)CC1 (single isomer, unassigned) [Example 40] | 48.6
8 | CC#CC(=O)N1CCC(C2CCNc3c2nn(-c2ccc(Oc4ccccc4)cc2)c3C(N)=O)CC1 (stereo not drawn) [Example 2, 7-[1-(but-2-ynoyl)piperidin-4-yl]-2-(4-phenoxyphenyl)-4,5,6,7-tetrahydro-2H-pyrazolo[4,3-b]pyridine-3-carboxamide] | 4.07
9 | C=CC(=O)N1CCC([C@@H]2CCNc3c2nn(-c2ccc(Oc4ccccc4)cc2)c3C(N)=O)CC1 [Example 5, (7S)-2-(4-phenoxyphenyl)-7-[1-(prop-2-enoyl)piperidin-4-yl]-4,5,6,7-tetrahydro-2H-pyrazolo[4,3-b]pyridine-3-carboxamide] | 10.5
10 | C=CC(=O)N1CCN([C@H]2CCNc3c2nn(-c2ccc(Oc4ccccc4)cc2)c3C(N)=O)CC1 [Example 7, (7S)-2-(4-phenoxyphenyl)-7-[4-(prop-2-enoyl)piperazin-1-yl]-4,5,6,7-tetrahydro-2H-pyrazolo[4,3-b]pyridine-3-carboxamide] | 11.5
11 | C=CC(=O)N1CCC(C2CCNc3c2nn(-c2ccc(Oc4ccc(F)cc4)cc2)c3C(N)=O)CC1 (stereo not drawn) [Example 11, 2-[4-(4-fluorophenoxy)phenyl]-7-[1-(prop-2-enoyl)piperidin-4-yl]-4,5,6,7-tetrahydro-2H-pyrazolo[4,3-b]pyridine-3-carboxamide] | 2.25
12 | C=CC(=O)N1CCC(C2CCNc3c2nn(-c2ccc(Oc4ccc(F)cc4F)cc2)c3C(N)=O)CC1 (stereo not drawn) [Example 13, 2-[4-(2,4-difluorophenoxy)phenyl]-7-[1-(prop-2-enoyl)piperidin-4-yl]-4,5,6,7-tetrahydro-2H-pyrazolo[4,3-b]pyridine-3-carboxamide] | 1.84
13 | C=CC(=O)N1CCC(C2CCNc3c2nn(-c2ccc(Oc4ccccc4)cc2OC)c3C(N)=O)CC1 (stereo not drawn) [Example 14, 2-(2-methoxy-4-phenoxyphenyl)-7-[1-(prop-2-enoyl)piperidin-4-yl]-4,5,6,7-tetrahydro-2H-pyrazolo[4,3-b]pyridine-3-carboxamide] | 37.5
14 | C=CC(=O)N1CCC(C2CCNc3c2nn(-c2ccc(Oc4ccc(OC)cc4)cc2)c3C(N)=O)CC1 (stereo not drawn) [Example 17, 2-[4-(4-methoxyphenoxy)phenyl]-7-[1-(prop-2-enoyl)piperidin-4-yl]-4,5,6,7-tetrahydro-2H-pyrazolo[4,3-b]pyridine-3-carboxamide] | 2.72
15 | C=CC(=O)N1C[C@H](C)N(C2CCNc3c2nn(-c2ccc(Oc4ccccc4)cc2)c3C(N)=O)C[C@H]1C (stereo partly drawn) [Example 18, 7-[(2S,5R)-2,5-dimethyl-4-(prop-2-enoyl)piperazin-1-yl]-2-(4-phenoxyphenyl)-4,5,6,7-tetrahydro-2H-pyrazolo[4,3-b]pyridine-3-carboxamide] | 678
16 | CC#CC(=O)N1CCC(N2CCNc3c2nn(-c2ccc(Oc4ccccc4)cc2)c3C(N)=O)CC1 [Example 19, 7-[1-(but-2-ynoyl)piperidin-4-yl]-2-(4-phenoxyphenyl)-4,5,6,7-tetrahydro-2H-pyrazolo[3,4-b]pyrazine-3-carboxamide] | 8.61
17 | C=CC(=O)N1CCN(C2CCNc3c2nn(-c2ccc(Oc4ccccc4)cc2)c3C(N)=O)C[C@H]1C(C)C (stereo partly drawn) [Example 20, 2-(4-phenoxyphenyl)-7-[(3R)-3-(propan-2-yl)-4-(prop-2-enoyl)piperazin-1-yl]-4,5,6,7-tetrahydro-2H-pyrazolo[4,3-b]pyridine-3-carboxamide] | 3.17
18 | C=CC(=O)N1C[C@@H](C)N(C2CCNc3c2nn(-c2ccc(Oc4ccccc4)cc2)c3C(N)=O)C[C@@H]1C (stereo partly drawn) [Example 21, 7-[(2R,5S)-2,5-dimethyl-4-(prop-2-enoyl)piperazin-1-yl]-2-(4-phenoxyphenyl)-4,5,6,7-tetrahydro-2H-pyrazolo[4,3-b]pyridine-3-carboxamide] | 919
19 | C=CC(=O)N1CCC(C2CCNc3c2nn(-c2ccc(Oc4cccc(C(F)(F)F)c4)cc2)c3C(N)=O)CC1 (stereo not drawn) [Example 23, 7-[1-(prop-2-enoyl)piperidin-4-yl]-2-{4-[3-(trifluoromethyl)phenoxy]phenyl}-4,5,6,7-tetrahydro-2H-pyrazolo[4,3-b]pyridine-3-carboxamide] | 2.03
20 | C=CC(=O)N1CCCN(C2CCNc3c2nn(-c2ccc(Oc4ccccc4)cc2)c3C(N)=O)CC1 (stereo not drawn) [Example 25, trifluoroacetic acid-2-(4-phenoxyphenyl)-7-[4-(prop-2-enoyl)-1,4-diazepan-1-yl]-4,5,6,7-tetrahydro-2H-pyrazolo[4,3-b]pyridine-3-carboxamide (1/1)] | 29.4
21 | C=CC(=O)N1CCN(C2CCNc3c2nn(-c2ccc(Oc4ccccc4)cc2)c3C(N)=O)CC12CCC2 (stereo not drawn) [Example 26, 2-(4-phenoxyphenyl)-7-[5-(prop-2-enoyl)-5,8-diazaspiro[3.5]nonan-8-yl]-4,5,6,7-tetrahydro-2H-pyrazolo[4,3-b]pyridine-3-carboxamide] | 2.16
22 | CC#CC(=O)N1CCN(C2CCNc3c2nn(-c2ccc(Oc4ccccc4)cc2)c3C(N)=O)CC1 (stereo not drawn) [Example 27, 7-[4-(but-2-ynoyl)piperazin-1-yl]-2-(4-phenoxyphenyl)-4,5,6,7-tetrahydro-2H-pyrazolo[4,3-b]pyridine-3-carboxamide] | 126
23 | C=CC(=O)N1CCC(C2CCNc3c2nn(-c2ccc(Oc4ccc(Cl)cc4)cc2)c3C(N)=O)CC1 (stereo not drawn) [Example 28, 2-[4-(4-chlorophenoxy)phenyl]-7-[1-(prop-2-enoyl)piperidin-4-yl]-4,5,6,7-tetrahydro-2H-pyrazolo[4,3-b]pyridine-3-carboxamide] | 4.66
24 | C=CC(=O)N1CCC([C@@H]2CCNc3c2nn(-c2ccc(Oc4ccc(F)cc4F)cc2)c3C(N)=O)CC1 [Example 29, (7S)-2-[4-(2,4-difluorophenoxy)phenyl]-7-[1-(prop-2-enoyl)piperidin-4-yl]-4,5,6,7-tetrahydro-2H-pyrazolo[4,3-b]pyridine-3-carboxamide] | 24.2
25 | C=CC(=O)N1C[C@H]2C[C@@H]1CN2C1CCNc2c1nn(-c1ccc(Oc3ccccc3)cc1)c2C(N)=O (stereo partly drawn) [Example 33, 2-(4-phenoxyphenyl)-7-[(1R,4R)-5-(prop-2-enoyl)-2,5-diazabicyclo[2.2.1]heptan-2-yl]-4,5,6,7-tetrahydro-2H-pyrazolo[4,3-b]pyridine-3-carboxamide] | 24.8
26 | C=CC(=O)N1C[C@@H]2C[C@H]1CN2C1CCNc2c1nn(-c1ccc(Oc3ccccc3)cc1)c2C(N)=O (stereo partly drawn) [Example 34, 2-(4-phenoxyphenyl)-7-[(1S,4S)-5-(prop-2-enoyl)-2,5-diazabicyclo[2.2.1]heptan-2-yl]-4,5,6,7-tetrahydro-2H-pyrazolo[4,3-b]pyridine-3-carboxamide] | 12.5
27 | C=CC(=O)N1CCN(C2CCNc3c2nn(-c2ccc(Oc4ccc(F)cc4F)cc2)c3C(N)=O)CC1 (stereo not drawn) [Example 36, 2-[4-(2,4-difluorophenoxy)phenyl]-7-[4-(prop-2-enoyl)piperazin-1-yl]-4,5,6,7-tetrahydro-2H-pyrazolo[4,3-b]pyridine-3-carboxamide] | 14.2
